Patent publication US20250368666A1, “INDAZOLE COMPOUNDS” (TYRA BIOSCIENCES, INC., priority 2022, published 2025)

Key:
[1] = test system: HuH7 cell line (FGF19 amplification); test: Cancer cell line cell viability assay (Cell Titer-Glo), 120 hr; type: cell-based; conditions: Homo sapiens, Huh-7
Procedure, shortened: (§1)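 ATP-based luminescence (Cell Titer-Glo 2.0) measured viability after 72 h (KG-1, RT112/84) or 120 h (MDA-MB-453, HuH7) compound exposure. Dosing was nine 4-fold steps starting at 3 μM, in triplicate, on overnight-plated cells. IC50 came from a variable-slope 4-parameter fit of % DMSO control.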

[2] = test system: KATO-III cell line (FGFR2 amplification); test: Cancer cell line cell viability assay (Cell Titer-Glo), 72 hr; type: cell-based; conditions: Homo sapiens, KATO III
Procedure, shortened: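 Luminescent ATP read-out (Cell Titer-Glo 2.0) after compound exposure, normalised to DMSO-only wells. Dosing: 9 concentrations, 4-fold steps, top 3 μM, triplicates. IC50 derived by log(inhibitor) vs. response 4-parameter fit.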

[3] = test system: RT112/84 cell line (FGFR3-fusion); test: as above; type: cell-based; conditions: Homo sapiens, RT112/84, RT112/84 cell line (FGFR3-fusion)
Procedure, shortened: as §1

[4] = test system: KG-1 cell line (FGFR 1-fusion); test: as above; type: cell-based; conditions: Homo sapiens, KG-1, KG-1 cell line (FGFR1-fusion)
Procedure, shortened: as §1

[5] = target: T1, FGFR4 (Homo sapiens, UniProt P22455); test: Kinase binding assay (kinase-tagged T7 phage, affinity beads, qPCR), Kd; conditions: read-out: FGFR4 (Kd nM)
T1 construct: made in house; host or cells: E. coli (BL21-derived), T7 phage
Procedure, shortened: (§2)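 T7 phage displaying each kinase, grown in a BL21-derived E. coli host at 32° C until lysis, competed with test compound for biotinylated ligand immobilised on streptavidin beads. Bead-bound kinase was eluted and quantified by qPCR. Kd came from an 11-point 3-fold dilution series fitted to the Hill equation with slope fixed at −1.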

[6] = target: T2, FGFR3 (V555M) (Homo sapiens, UniProt P22607, V555M); test: as above; conditions: V555M mutant; read-out: FGFR3 (V555M) (Kd nM)
T2 construct: made in house; host or cells: E. coli (BL21-derived), T7 phage
Procedure, shortened: as §2

[7] = target: T3, FGFR2 (Homo sapiens, UniProt P21802); test: as above; conditions: read-out: FGFR2 (Kd nM)
T3 construct: made in house; host or cells: E. coli (BL21-derived), T7 phage
Procedure, shortened: as §2

[8] = target: T4, FGFR1 (Homo sapiens, UniProt P11362); test: as above; conditions: read-out: FGFR1 (Kd nM)
T4 construct: made in house; host or cells: E. coli (BL21-derived), T7 phage
Procedure, shortened: as §2

[9] = target: T5, FGFR3 (Homo sapiens, UniProt P22607); test: as above; conditions: read-out: FGFR3 (Kd nM)
T5 construct: made in house; host or cells: E. coli (BL21-derived), T7 phage
Procedure, shortened: as §2

T5 sequence (P22607 23-806): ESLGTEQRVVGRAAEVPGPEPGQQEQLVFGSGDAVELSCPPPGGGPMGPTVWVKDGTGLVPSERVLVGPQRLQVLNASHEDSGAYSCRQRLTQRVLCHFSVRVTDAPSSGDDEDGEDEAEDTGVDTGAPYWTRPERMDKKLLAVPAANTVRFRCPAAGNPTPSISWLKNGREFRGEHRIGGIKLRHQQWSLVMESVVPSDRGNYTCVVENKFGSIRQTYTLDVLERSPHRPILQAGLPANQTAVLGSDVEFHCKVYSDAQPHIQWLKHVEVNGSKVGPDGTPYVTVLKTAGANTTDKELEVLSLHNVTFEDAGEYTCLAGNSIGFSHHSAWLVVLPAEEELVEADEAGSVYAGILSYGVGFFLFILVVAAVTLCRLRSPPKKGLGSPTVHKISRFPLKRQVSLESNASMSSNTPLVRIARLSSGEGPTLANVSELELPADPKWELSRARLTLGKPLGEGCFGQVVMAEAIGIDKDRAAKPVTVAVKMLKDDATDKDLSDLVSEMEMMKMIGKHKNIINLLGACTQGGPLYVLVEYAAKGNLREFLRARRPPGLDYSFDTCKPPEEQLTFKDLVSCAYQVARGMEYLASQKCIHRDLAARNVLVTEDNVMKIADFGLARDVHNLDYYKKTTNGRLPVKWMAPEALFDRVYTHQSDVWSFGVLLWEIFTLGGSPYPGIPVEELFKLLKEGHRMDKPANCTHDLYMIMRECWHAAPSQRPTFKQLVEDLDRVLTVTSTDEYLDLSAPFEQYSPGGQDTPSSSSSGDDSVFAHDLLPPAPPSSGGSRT
T2 sequence (P22607 23-806 V555M): as the sequence (P22607 23-806) above, with V533M counted along it
T1 sequence (P22455 22-802): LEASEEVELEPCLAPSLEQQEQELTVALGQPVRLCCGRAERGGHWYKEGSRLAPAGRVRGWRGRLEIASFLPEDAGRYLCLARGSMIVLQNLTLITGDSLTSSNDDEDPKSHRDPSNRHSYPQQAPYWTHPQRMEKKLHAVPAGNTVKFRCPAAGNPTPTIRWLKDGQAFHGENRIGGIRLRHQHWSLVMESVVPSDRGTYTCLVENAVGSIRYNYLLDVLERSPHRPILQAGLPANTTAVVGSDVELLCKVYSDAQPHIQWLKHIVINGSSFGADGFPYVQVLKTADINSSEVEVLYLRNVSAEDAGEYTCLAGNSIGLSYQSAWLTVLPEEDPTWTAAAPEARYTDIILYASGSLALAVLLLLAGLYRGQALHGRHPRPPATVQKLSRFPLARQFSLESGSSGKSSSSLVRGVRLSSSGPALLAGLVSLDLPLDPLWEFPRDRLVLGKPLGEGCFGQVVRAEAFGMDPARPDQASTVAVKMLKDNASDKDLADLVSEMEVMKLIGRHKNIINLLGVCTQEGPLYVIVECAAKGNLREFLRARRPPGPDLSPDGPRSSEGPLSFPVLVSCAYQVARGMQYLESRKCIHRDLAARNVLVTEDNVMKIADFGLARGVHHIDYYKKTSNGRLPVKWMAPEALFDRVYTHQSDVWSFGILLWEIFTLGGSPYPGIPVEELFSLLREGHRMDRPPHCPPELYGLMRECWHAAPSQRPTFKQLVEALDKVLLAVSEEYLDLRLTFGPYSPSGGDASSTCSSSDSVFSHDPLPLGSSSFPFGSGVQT
T3 sequence (P21802 22-821): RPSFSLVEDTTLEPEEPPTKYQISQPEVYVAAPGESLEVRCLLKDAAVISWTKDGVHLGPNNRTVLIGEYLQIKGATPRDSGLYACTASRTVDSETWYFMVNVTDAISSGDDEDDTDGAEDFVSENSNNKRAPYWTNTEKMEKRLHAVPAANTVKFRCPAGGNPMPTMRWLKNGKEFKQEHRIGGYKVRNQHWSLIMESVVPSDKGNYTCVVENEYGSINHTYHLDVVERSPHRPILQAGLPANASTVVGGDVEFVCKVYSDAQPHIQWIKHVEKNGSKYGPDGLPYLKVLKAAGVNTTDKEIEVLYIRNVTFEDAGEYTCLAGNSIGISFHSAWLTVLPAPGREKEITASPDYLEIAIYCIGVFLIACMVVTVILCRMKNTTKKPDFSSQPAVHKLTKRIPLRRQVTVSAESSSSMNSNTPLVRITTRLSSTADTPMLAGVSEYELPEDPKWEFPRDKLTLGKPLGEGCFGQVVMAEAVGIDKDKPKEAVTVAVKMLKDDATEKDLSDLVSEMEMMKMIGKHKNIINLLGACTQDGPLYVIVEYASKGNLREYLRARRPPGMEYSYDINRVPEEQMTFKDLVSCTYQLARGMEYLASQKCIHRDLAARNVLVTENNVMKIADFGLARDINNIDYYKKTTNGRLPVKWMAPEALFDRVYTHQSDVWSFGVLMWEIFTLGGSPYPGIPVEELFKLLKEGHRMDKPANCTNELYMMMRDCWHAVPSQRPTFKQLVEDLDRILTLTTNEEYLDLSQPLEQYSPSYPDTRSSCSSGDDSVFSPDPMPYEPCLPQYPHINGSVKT
T4 sequence (P11362 22-822): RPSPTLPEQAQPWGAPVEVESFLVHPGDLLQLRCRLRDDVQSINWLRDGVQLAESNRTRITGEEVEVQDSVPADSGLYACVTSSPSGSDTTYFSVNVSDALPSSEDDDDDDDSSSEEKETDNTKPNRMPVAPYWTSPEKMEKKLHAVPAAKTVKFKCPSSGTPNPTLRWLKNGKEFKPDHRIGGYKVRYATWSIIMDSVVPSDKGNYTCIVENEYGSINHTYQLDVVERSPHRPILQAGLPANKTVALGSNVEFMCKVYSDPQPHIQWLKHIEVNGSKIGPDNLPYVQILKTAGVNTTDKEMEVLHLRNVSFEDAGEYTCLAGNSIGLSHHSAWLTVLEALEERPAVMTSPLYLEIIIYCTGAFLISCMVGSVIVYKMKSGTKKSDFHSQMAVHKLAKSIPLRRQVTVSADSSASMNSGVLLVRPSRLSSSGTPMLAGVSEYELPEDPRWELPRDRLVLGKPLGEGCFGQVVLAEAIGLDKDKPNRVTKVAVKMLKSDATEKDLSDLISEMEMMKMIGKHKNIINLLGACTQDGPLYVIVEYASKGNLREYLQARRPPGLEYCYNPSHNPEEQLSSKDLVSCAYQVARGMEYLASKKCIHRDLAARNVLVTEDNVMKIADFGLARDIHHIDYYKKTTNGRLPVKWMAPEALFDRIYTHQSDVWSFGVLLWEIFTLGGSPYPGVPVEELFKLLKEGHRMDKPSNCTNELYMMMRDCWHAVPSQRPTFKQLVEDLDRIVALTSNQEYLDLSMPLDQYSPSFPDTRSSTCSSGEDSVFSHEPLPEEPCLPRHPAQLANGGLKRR

Row | SMILES | IC50 [1] [nM] | IC50 [2] [nM] | IC50 [3] [nM] | IC50 [4] [nM] | Kd [5] [nM] | Kd [6] [nM] | Kd [7] [nM] | Kd [8] [nM] | Kd [9] [nM]
1 | COCCNC1(C)CN(c2ncc(-c3n[nH]c4ccc(O[C@H](C)c5c(Cl)cncc5Cl)cc34)cc2C#N)C1 [Example 88, (R)-5-(5-(1-(3,5-dichloropyridin-4-yl)ethoxy)-1H-indazol-3-yl)-2-(3-((2-methoxyethyl)amino)-3-methylazetidin-1-yl)nicotinonitrile] | 0.1 to 50 | 50 to 200 | 50 to 200 | 200 to 1000 | 1 to 50 | 1 to 50 | 50 to 300 | 1 to 50 | 1 to 50
2 | CC(C)OCCNC1(C)CN(c2ncc(-c3n[nH]c4ccc(O[C@H](C)c5c(Cl)cncc5Cl)cc34)cc2C#N)C1 [Example 98, (R)-5-(5-(1-(3,5-dichloropyridin-4-yl)ethoxy)-1H-indazol-3-yl)-2-(3-((2-isopropoxyethyl)amino)-3-methylazetidin-1-yl)nicotinonitrile] | 50 to 200 | 200 to 1000 | 50 to 200 | 200 to 1000 | 1 to 50 | 1 to 50 | 50 to 300 | 50 to 300 | 1 to 50
3 | COc1cc2[nH]nc(-c3cnc(N4CC(C)(N5CC(C)(O)C5)C4)c(C#N)c3)c2cc1O[C@H](C)c1c(Cl)cncc1Cl [Example 99, (R)-5-(5-(1-(3,5-dichloropyridin-4-yl)ethoxy)-6-methoxy-1H-indazol-3-yl)-2-(3-hydroxy-3,3′-dimethyl-[1,3′-biazetidin]-1′-yl)nicotinonitrile] | 0.1 to 50 | 0.1 to 50 | 0.1 to 50 | 0.1 to 50 | 1 to 50 | 1 to 50 | 1 to 50 | 1 to 50 | 1 to 50
4 | C[C@@H](Oc1ccc2[nH]nc(-c3cnc(N4CC(C)(N5CC(C)(O)C5)C4)c(C#N)c3)c2c1)c1c(Cl)cncc1Cl [Example 100, (R)-5-(5-(1-(3,5-dichloropyridin-4-yl)ethoxy)-1H-indazol-3-yl)-2-(3-hydroxy-3,3′-dimethyl-[1,3′-biazetidin]-1′-yl)nicotinonitrile] | 0.1 to 50 | 50 to 200 | 0.1 to 50 | 50 to 200 | 1 to 50 | 1 to 50 | 1 to 50 | 1 to 50 | 1 to 50
5 | COc1cc2[nH]nc(-c3cnc(N4CC(C)(N5CC(C)(OC)C5)C4)c(C#N)c3)c2cc1O[C@H](C)c1c(Cl)cncc1Cl [Example 101, (R)-5-(5-(1-(3,5-dichloropyridin-4-yl)ethoxy)-6-methoxy-1H-indazol-3-yl)-2-(3-methoxy-3,3′-dimethyl-[1,3′-biazetidin]-1′-yl)nicotinonitrile] | 0.1 to 50 | 0.1 to 50 | 0.1 to 50 | 50 to 200 | 1 to 50 | 1 to 50 | 1 to 50 | 1 to 50 | 1 to 50
6 | COC1(C)CN(C2(C)CN(c3ncc(-c4n[nH]c5ccc(O[C@H](C)c6c(Cl)cncc6Cl)cc45)cc3C#N)C2)C1 [Example 102, (R)-5-(5-(1-(3,5-dichloropyridin-4-yl)ethoxy)-1H-indazol-3-yl)-2-(3-methoxy-3,3′-dimethyl-[1,3′-biazetidin]-1′-yl)nicotinonitrile] | 0.1 to 50 | 200 to 1000 | 50 to 200 | 200 to 1000 | 1 to 50 | 1 to 50 | 1 to 50 | 1 to 50 | 1 to 50
7 | COc1cc2[nH]nc(-c3cnc(N4CC(C)(NCC5(O)CC5)C4)c(C#N)c3)c2cc1O[C@H](C)c1c(Cl)cncc1Cl [Example 105] | 0.1 to 50 | 50 to 200 | 0.1 to 50 | 50 to 200 | 1 to 50 | 1 to 50 | 1 to 50 | 1 to 50 | 1 to 50
8 | C[C@@H](Oc1ccc2[nH]nc(-c3cnc(N4CC(C)(CN5CCOCC5)C4)c(C#N)c3)c2c1)c1c(Cl)cncc1Cl [Example 122, (R)-5-(5-(1-(3,5-dichloropyridin-4-yl)ethoxy)-1H-indazol-3-yl)-2-(3-methyl-3-(morpholinomethyl)aze-tidin-1-yl)nicotinonitrile] | 50 to 200 | 200 to 1000 | 50 to 200 | 200 to 1000 | 1 to 50 | 1 to 50 | 50 to 300 | 50 to 300 | 1 to 50
9 | C[C@@H](Oc1ccc2[nH]nc(-c3cnc(N4CC(C)(CN5CCCC5)C4)c(C#N)c3)c2c1)c1c(Cl)cncc1Cl [Example 123, (R)-5-(5-(1-(3,5-dichloropyridin-4-yl)ethoxy)-1H-indazol-3-yl)-2-(3-methyl-3-(pyrrolidin-1-ylmethyl)azetidin-1-yl)nicotinonitrile] | 0.1 to 50 | 200 to 1000 | 50 to 200 | 200 to 1000 | 1 to 50 | 1 to 50 | 1 to 50 | 50 to 300 | 1 to 50
10 | CC(C)NCC1(C)CN(c2ncc(-c3n[nH]c4ccc(O[C@H](C)c5c(Cl)cncc5Cl)cc34)cc2C#N)C1 [Example 133, 5-[5-[(1R)-1-(3,5-dichloro-4-pyridyl)ethoxy]-1H-indazol-3-yl]-2-[3-[(isopropylamino)meth-yl]-3-methyl-azetidin-1-yl]pyridine-3-carbonitrile] | 200 to 1000 | 200 to 1000 | 50 to 200 | 50 to 200 | 1 to 50 | 1 to 50 | 50 to 300 | 1 to 50 | 1 to 50
11 | C[C@@H](Oc1cc2c(-c3cnc(N4CC(C)(NCC5CC5)C4)c(C#N)c3)n[nH]c2cc1F)c1c(Cl)cncc1Cl [Example 134, (R)-2-(3-((cyclopropylmethyl)a-mino)-3-methylazetidin-1-yl)-5-(5-(1-(3,5-dichloropyridin-4-yl)ethoxy)-6-fluoro-1H-indazol-3-yl)nicotinonitrile] | 50 to 200 | 200 to 1000 | 50 to 200 | 200 to 1000 | 1 to 50 | 1 to 50 | 50 to 300 | 50 to 300 | 1 to 50
12 | C[C@@H](Oc1cc2c(-c3cnc(N4CC(C)(N5CCCC5)C4)c(C#N)c3)n[nH]c2cc1F)c1c(Cl)cncc1Cl [Example 135, (R)-5-(5-(1-(3,5-dichloropyridin-4-yl)ethoxy)-6-fluoro-1H-indazol-3-yl)-2-(3-methyl-3-(pyrrolidin-1-yl)azetidin-1-yl)nicotinonitrile] | 50 to 200 | 200 to 1000 | 50 to 200 | 200 to 1000 | 1 to 50 | 1 to 50 | 1 to 50 | 50 to 300 | 1 to 50
13 | COc1cc2[nH]nc(-c3cnc(N4CC(C)(NCC(C)C)C4)c(C#N)c3)c2cc1O[C@H](C)c1c(Cl)cncc1Cl [Example 139, (R)-5-(5-(1-(3,5-dichloropyridin-4-yl)ethoxy)-6-methoxy-1H-indazol-3-yl)-2-(3-(isobutylamino)-3-methylazetidin-1-yl)nicotinonitrile] | 0.1 to 50 | 50 to 200 | 0.1 to 50 | 50 to 200 | 1 to 50 | 1 to 50 | 1 to 50 | 1 to 50 | 1 to 50
